{"source": "patent US11266642B2", "about": "“Small molecule inhibitors of HLA-DR3 binding for treating autoimmune thyroiditis” (ICAHN SCHOOL OF MEDICINE AT MOUNT SINAI, priority 2015, dated 2022)", "key": {"HLA-DR2": {"tested_on": "HLA-DR2", "assay": "MBP87-99 binding to DR2 expressing cells, flow cytometry (specificity control)", "format": "cell-based, human", "conditions": "biotinylated MBP87-99, 24 hours"}, "[1]": {"tested_on": "T-cell proliferative responses to hTg", "assay": "In vivo IP administration in hTg-immunized NOD-DR3 mice (EAT), T-cell proliferation CFSE assay", "set-up": "species or system mouse", "conditions": "IP 125 μg on days -2, -1, 5, 6; sacrifice day 21; vehicle 2.3 ± 0.5; p=0.0432", "description": "Mice transgenic for DRB1*0301 were originally generated by G. J Hämmerling and co-workers as previously described [Strauss et al. Immunogenetics 40, 104-108 (1994)]. Briefly, the DR3 (DRA1*0101/DRB1*0301) transgenes were inserted into (C57BL/6×DBA/2) F1 embryos and the progeny were back-crossed to B10.Q mice. The DR3 mice were crossed with I-Aβ knockouts (C57BL/6×129) to obtain mice lacking murine MHC class II and expressing human DR3. The transgenic mouse line was maintained by intercrossing. The background non-MHC genes in the DR3 transgenic line was 50% C57BL/10 genes and 50% contribution from CBA, C57BL/6, and 129 genes. These mice were then back-crossed into NOD background to produce the NOD-DR3 mice [Flynn et al. J Autoimmun, 17, 7-15 (2001)]. The transgene was confirmed to be HLA-DRβ1-Arg74 positive. […]\nSeven female NOD-DR3 mice (6-10 weeks old) were injected IP with […] Compound Ia on day (−2) and day (−1), followed by SQ immunization of human thyroglobulin (hTg) mixed with CFA on day 0. […] The stimulation index was calculated by using the formula described above: Stimulation index=[% proliferating lymphocytes (hTg, peptide or mitogen-treated)]/[% proliferating lymphocytes (medium-treated)]."}, "[2]": {"tested_on": "T-cells of hTg immunized mice", "assay": "CFSE T-cell proliferation of splenocytes from hTg immunized NOD-DR3 mice, compound added ex vivo", "format": "cell-based, mouse", "conditions": "final concentration 0.001 mM", "procedure": "Female NOD-DR3 mice, 4-6 weeks old, were injected subcutaneously with human thyroglobulin (hTg) (Cell Sciences, Canton, Mass.) in complete Freund adjuvant (CFA) (Sigma) to induce EAT. Mice were immunized with hTg on day 0 and boosted on day 7; mice were sacrificed on day 21. For some mice, PC61 (anti-CD25) antibody (ATCC) at 7.5 mg/mL was injected i.p. on day (−4) and day 3 to deplete T regulatory (CD25+) cells and augment the autoimmune response to hTg.\nSpleen and draining lymph nodes were collected from mice upon sacrifice. The spleens and draining lymph nodes were harvested in complete RPMI (Corning) supplemented with 10% FBS (Sigma-Aldrich,) and 1 mM sodium pyruvate (Sigma-Aldrich). They were cut and pressed in circular motion using a plunger from a 10 mL syringe. The suspension was filtered through a 100 μm cell strainer twice and centrifuged at 200×g for 10 minutes. The supernatant was discarded. […] The pellet was resuspended in RPMI and the cells were counted and plated. […]\nThe CFSE-labeled cells were plated at 2×10^5 cells per well in 100 μL of medium (RPMI/10% FBS). […] The results were analyzed using Flowjo (Tree Star, Ashland, Oreg.). The stimulation index was calculated by using the following formula: Stimulation index=[% proliferating lymphocytes (hTg, peptide or mitogen-treated)]/[% proliferating lymphocytes (medium-treated)]. […]"}}, "data": [{"molecule": "COc1ccc2cc1Oc1ccc(cc1)C[C@H]1c3c(cc4c(c3Oc3cc5c(cc3OC)CCN(C)[C@@H]5C2)OCO4)CCN1C", "note": "[Compound Ia, cepharanthine]", "values": [{"measurement": "block of MBP87-99 binding to DR2", "setting": "HLA-DR2", "value": "did not block"}, {"measurement": "Stimulation index, T-cell stimulation in response to hTg", "setting": "[1]", "value": "1.3 ± 0.2"}, {"measurement": "activation of T-cells of hTg immunized mice by Tg.2098", "setting": "[2]; Tg.2098 20 μg/ml, p=0.0079", "value": "significantly blocked"}, {"measurement": "activation of T-cells of hTg immunized mice by hTg", "setting": "[2]; hTg 40 μg/mL, p=0.0005", "value": "significantly blocked"}]}]}
